Patent publication US8765730B2 (Hoffmann-La Roche Inc, priority 2010, dated 2014)
pEC50: −log10 of the molar value.

These compounds were tested against T1, human GPBAR1 receptor (Homo sapiens, UniProt Q8TDU6) (assay: functional cAMP assay in CHO-dhfr(minus) cells expressing human GPBAR1 receptors). Conditions: human EC50, functional cAMP assay, 30 min at 30° C.
T1 construct: expressed in transfected cells
T1 sequence (Q8TDU6 1-330): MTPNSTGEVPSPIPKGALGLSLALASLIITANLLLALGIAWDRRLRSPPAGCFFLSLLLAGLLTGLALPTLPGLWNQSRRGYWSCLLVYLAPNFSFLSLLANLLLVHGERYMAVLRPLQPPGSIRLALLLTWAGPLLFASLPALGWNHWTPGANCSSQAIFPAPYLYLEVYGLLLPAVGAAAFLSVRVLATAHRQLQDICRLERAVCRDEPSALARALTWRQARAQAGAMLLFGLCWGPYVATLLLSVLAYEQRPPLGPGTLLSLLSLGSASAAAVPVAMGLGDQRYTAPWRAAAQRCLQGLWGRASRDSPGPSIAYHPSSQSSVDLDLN
Assay type: cell-based
Summary of the method: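 Agonist cAMP read-out: stable GPBAR1 CHO-dhfr− clone, 30 min compound exposure at 30° C following 30 min IBMX (1 mM) preincubation in Krebs Ringer bicarbonate. Time-resolved energy-transfer detection gives EC50; parental CHO cells serve as counter-screen.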

Row | SMILES | pEC50
1 | Cn1cc(/C(CC(c2ccc(CO)cc2)c2ccc(Cl)cc2F)=N/O)ccc1=O (centres unmarked) [Example 317, (E)-5-(3-(4-chloro-2-fluorophenyl)-1-(hydroxyimino)-3-(4-(hydroxymethyl)phenyl)propyl)-1-methylpyridin-2(1H)-one] | 8.00
2 | Cn1cc(/C(CC(c2ccc(O)cc2)c2ccc(Cl)cc2F)=N/O)ccc1=O (centres unmarked) [Example 318, (E)-5-(3-(4-Chloro-2-fluorophenyl)-1-(hydroxyimino)-3-(4-hydroxyphenyl)propyl)-1-methylpyridin-2(1H)-one] | 6.71
3 | CC(=O)Nc1cccc(C(C/C(=N\O)c2ccc(=O)n(C)c2)c2ccc(Cl)cc2F)c1 (centres unmarked) [Example 319, (E)-N-(3-(1-(4-Chloro-2-fluorophenyl)-3-(hydroxyimino)-3-(1-methyl-6-oxo-1,6-dihydropyridin-3-yl)propyl)phenyl)acetamide] | 5.60
4 | Cn1cc(/C(CC(c2cccc(C(=O)NCCO)c2)c2ccc(Cl)cc2F)=N/O)ccc1=O (centres unmarked) [Example 320, (E)-3-(1-(4-Chloro-2-fluorophenyl)-3-(hydroxyimino)-3-(1-methyl-6-oxo-1,6-dihydro-pyridin-3-yl)propyl)-N-(2-hydroxyethyl)benzamide] | 5.47
5 | CN(CCO)C(=O)c1cccc(C(C/C(=N\O)c2ccc(=O)n(C)c2)c2ccc(Cl)cc2F)c1 (centres unmarked) [Example 321, (E)-3-(1-(4-Chloro-2-fluorophenyl)-3-(hydroxyimino)-3-(1-methyl-6-oxo-1,6-dihydropyridin-3-yl)propyl)-N-(2-hydroxyethyl)-N-methylbenzamide] | 5.28
6 | Cn1cc(/C(CC(c2cccc(C(=O)N3CCOCC3)c2)c2ccc(Cl)cc2F)=N/O)ccc1=O (centres unmarked) [Example 322, (E)-5-(3-(4-Chloro-2-fluorophenyl)-1-(hydroxyimino)-3-(3-(morpholine-4-carbonyl)phenyl)propyl)-1-methylpyridin-2(1H)-one] | 5.40
7 | Cc1cc(Cl)ccc1C(C/C(=N\O)c1ccc(=O)n(C)c1)c1ccc(OC(C)C)c(F)c1 (centres unmarked) [Example 323, 5-{3-(4-Chloro-2-methyl-phenyl)-3-(3-fluoro-4-isopropoxy-phenyl)-1-[(E)-hydroxyimino]-propyl}-1-methyl-1H-pyridin-2-one] | 6.75
8 | Cc1cc(Cl)ccc1C(C/C(=N\O)c1ccc(=O)n(C)c1)c1ccc(O)c(F)c1 (centres unmarked) [Example 324, 5-{3-(4-Chloro-2-methyl-phenyl)-3-(3-fluoro-4-hydroxy-phenyl)-1-[(E)-hydroxyimino]-propyl}-1-methyl-1H-pyridin-2-one] | 6.25
9 | Cc1cc(Cl)ccc1C(C/C(=N\O)c1ccc(=O)n(C)c1)c1ccc(Oc2cccc(C(=O)O)c2)c(F)c1 (centres unmarked) [Example 325, 3-{4-[1-(4-Chloro-2-methyl-phenyl)-3-[(E)-hydroxyimino]-3-(1-methyl-6-oxo-1,6-dihydro-pyridin-3-yl)-propyl]-2-fluoro-phenoxy}-benzoic acid] | 6.98
10 | Cc1cc(Cl)ccc1C(C/C(=N\O)c1ccc(=O)n(C)c1)c1ccc(Oc2ccc(Cl)c(C(=O)O)c2)c(F)c1 (centres unmarked) [Example 326, 2-Chloro-5-{4-[1-(4-chloro-2-methyl-phenyl)-3-[(E)-hydroxyimino]-3-(1-methyl-6-oxo-1,6-dihydro-pyridin-3-yl)-propyl]-2-fluoro-phenoxy}-benzoic acid] | 6.86
11 | Cc1cc(Cl)ccc1C(C/C(=N\O)c1ccc(=O)n(C)c1)c1ccc(OCCCC(=O)O)c(F)c1 (centres unmarked) [Example 327, 4-{4-[1-(4-Chloro-2-methyl-phenyl)-3-[(E)-hydroxyimino]-3-(1-methyl-6-oxo-1,6-dihydro-pyridin-3-yl)-propyl]-2-fluoro-phenoxy}-butyric acid] | 6.71
12 | Cc1cc(Cl)ccc1C(C/C(=N\O)c1ccc(=O)n(C)c1)c1ccc(OCCO)c(F)c1 (centres unmarked) [Example 328, 5-{3-(4-Chloro-2-methyl-phenyl)-3-[3-fluoro-4-(2-hydroxy-ethoxy)-phenyl]-1-[(E)-hydroxyimino]-propyl}-1-methyl-1H-pyridin-2-one] | 7.96
13 | Cc1cc(Cl)ccc1C(C/C(=N\O)c1ccc(=O)n(C)c1)c1ccc(OS(C)(=O)=O)c(F)c1 (centres unmarked) [Example 329, Methanesulfonic acid 4-[1-(4-chloro-2-methyl-phenyl)-3-[(E)-hydroxyimino]-3-(1-methyl-6-oxo-1,6-dihydro-pyridin-3-yl)-propyl]-2-fluoro-phenyl ester] | 7.21
14 | Cc1ncsc1C(C/C(=N\O)c1ccc(=O)n(C)c1)c1ccc(Br)cc1 (centres unmarked) [Example 330, (E)-5-(3-(4-Bromophenyl)-1-(hydroxyimino)-3-(4-methylthiazol-5-yl)propyl)-1-methylpyridin-2(1H)-one] | 7.04
15 | Cc1cc(Cl)ccc1C(C/C(=N\O)c1ccc(=O)n(C)c1)c1ccc(S(C)(=O)=O)cc1 (centres unmarked) [Example 331, (E)-5-(3-(4-chloro-2-methylphenyl)-1-(hydroxyimino)-3-(4-(methylsulfonyl)phenyl)propyl)-1-methylpyridin-2(1H)-one] | 7.42
16 | Cc1cc(Cl)ccc1C(C/C(=N\O)c1ccc(=O)n(C)c1)c1ccc(C(=O)NCCO)cc1 (centres unmarked) [Example 332, (E)-4-(1-(4-Chloro-2-methylphenyl)-3-(hydroxyimino)-3-(1-methyl-6-oxo-1,6-dihydropyridin-3-yl)propyl)-N-(2-hydroxyethyl)benzamide] | 6.89
17 | Cc1cc(Cl)ccc1C(C/C(=N\O)c1ccc(=O)n(C)c1)c1ccc(C(=O)NC[C@@H](O)CO)cc1 (stereo partly drawn) [Example 335, 4-((E)-1-(4-Chloro-2-methylphenyl)-3-(hydroxyimino)-3-(1-methyl-6-oxo-1,6-dihydropyridin-3-yl)propyl)-N—((R)-2,3-dihydroxypropyl)benzamide] | 6.95
18 | Cc1cc(Cl)ccc1C(C/C(=N\O)c1ccc(=O)n(C)c1)c1ccc(C(=O)NCCS(C)(=O)=O)cc1 (centres unmarked) [Example 336, (E)-4-(1-(4-Chloro-2-methylphenyl)-3-(hydroxyimino)-3-(1-methyl-6-oxo-1,6-dihydropyridin-3-yl)propyl)-N-(2-(methylsulfonyl)ethyl)benzamide] | 6.48
19 | Cc1cc(Cl)ccc1C(C/C(=N\O)c1ccc(=O)n(C)c1)c1ccc(CO)cc1 (centres unmarked) [Example 337, (E)-5-(3-(4-Chloro-2-methylphenyl)-1-(hydroxyimino)-3-(4-(hydroxymethyl)phenyl)-propyl)-1-methylpyridin-2(1H)-one] | 7.85
20 | Cc1cc(Cl)ccc1C(C/C(=N\O)c1ccc(=O)n(C)c1)c1ccc(S(N)(=O)=O)cc1 (centres unmarked) [Example 338, (E)-4-(1-(4-chloro-2-methylphenyl)-3-(hydroxyimino)-3-(1-methyl-6-oxo-1,6-dihydropyridin-3-yl)propyl)benzenesulfonamide] | 7.22
21 | COCCOCCn1cc(/C(CC(c2ccc(S(C)(=O)=O)cc2)c2ccc(Cl)cc2C)=N/O)ccc1=O (centres unmarked) [Example 339, (E)-5-(3-(4-chloro-2-methylphenyl)-1-(hydroxyimino)-3-(4-(methylsulfonyl)phenyl)propyl)-1-(2-(2-methoxyethoxy)ethyl)pyridin-2(1H)-one] | 7.05
22 | CCOCCn1cc(/C(CC(c2ccc(S(C)(=O)=O)cc2)c2ccc(Cl)cc2C)=N/O)ccc1=O (centres unmarked) [Example 340, (E)-5-(3-(4-Chloro-2-methylphenyl)-1-(hydroxyimino)-3-(4-(methylsulfonyl)phenyl)-propyl)-1-(2-ethoxyethyl)pyridin-2(1H)-one] | 6.66
23 | COCCn1cc(/C(CC(c2ccc(S(C)(=O)=O)cc2)c2ccc(Cl)cc2C)=N/O)ccc1=O (centres unmarked) [Example 341, (E)-5-(3-(4-Chloro-2-methylphenyl)-1-(hydroxyimino)-3-(4-(methylsulfonyl)phenyl)-propyl)-1-(2-methoxyethyl)pyridin-2(1H)-one] | 6.79
24 | Cc1cc(Cl)ccc1C(C/C(=N\O)c1ccc(=O)n(CCO)c1)c1ccc(S(C)(=O)=O)cc1 (centres unmarked) [Example 342, (E)-5-(3-(4-Chloro-2-methylphenyl)-1-(hydroxyimino)-3-(4-(methylsulfonyl)phenyl)-propyl)-1-(2-hydroxyethyl)pyridin-2(1H)-one] | 6.00
25 | Cc1cc(Cl)ccc1C(C/C(=N\O)c1ccc(=O)n(CC(N)=O)c1)c1ccc(S(C)(=O)=O)cc1 (centres unmarked) [Example 343, (E)-2-(5-(3-(4-Chloro-2-methylphenyl)-1-(hydroxyimino)-3-(4-(methylsulfonyl)-phenyl)propyl)-2-oxopyridin-1(2H)-yl)acetamide] | 5.43
26 | Cc1cc(Cl)ccc1C(C/C(=N\O)c1ccc(=O)n(CCC(N)=O)c1)c1ccc(S(C)(=O)=O)cc1 (centres unmarked) [Example 344, (E)-3-(5-(3-(4-Chloro-2-methylphenyl)-1-(hydroxyimino)-3-(4-(methylsulfonyl)phenyl)-propyl)-2-oxopyridin-1(2H)-yl)propanamide] | 6.73
27 | Cc1cc(Cl)ccc1C(C/C(=N\O)c1ccc(=O)n(CCC(=O)O)c1)c1ccc(S(C)(=O)=O)cc1 (centres unmarked) [Example 345, (E)-3-(5-(3-(4-Chloro-2-methylphenyl)-1-(hydroxyimino)-3-(4-(methylsulfonyl)phenyl)-propyl)-2-oxopyridin-1(2H)-yl)propanoic acid] | < 5.00
28 | Cc1cc(Cl)ccc1C(C/C(=N\O)c1ccc(=O)n(C)c1)c1ccc(Oc2cccc(C(=O)O)c2)cc1 (centres unmarked) [Example 346, 3-{4-[1-(4-Chloro-2-methyl-phenyl)-3-[(E)-hydroxyimino]-3-(1-methyl-6-oxo-1,6-dihydro-pyridin-3-yl)-propyl]-phenoxy}-benzoic acid] | 7.38
29 | Cc1cc(Cl)ccc1C(C/C(=N\O)c1ccc(=O)n(C)c1)c1ccc(Oc2ccc(Cl)c(C(=O)O)c2)cc1 (centres unmarked) [Example 347, 2-Chloro-5-{4-[1-(4-chloro-2-methyl-phenyl)-3-[(E)-hydroxyimino]-3-(1-methyl-6-oxo-1,6-dihydro-pyridin-3-yl)-propyl]-phenoxy}-benzoic acid] | 6.92
